Reference: patent US20030144310A1 (priority 2001, published 2003)
Read-outs that look alike come from different tables or passages of the source.

Columns and labels:
[1] = biological target: T1, rNPFF-1 (Rattus norvegicus, UniProt Q9EP86); assay: Functional activity (EC50 and intrinsic activity relative to NPFF); assay type: cell-based; conditions: for Functional Activity rNPFF-1 I.A. %: intrinsic activity as percentage of maximal response by NPFF; for EC50: tested 0.001 nM to 3600 nM
T1 construct: expressed in transfected cells
T1 sequence (Q9EP86 whole entry): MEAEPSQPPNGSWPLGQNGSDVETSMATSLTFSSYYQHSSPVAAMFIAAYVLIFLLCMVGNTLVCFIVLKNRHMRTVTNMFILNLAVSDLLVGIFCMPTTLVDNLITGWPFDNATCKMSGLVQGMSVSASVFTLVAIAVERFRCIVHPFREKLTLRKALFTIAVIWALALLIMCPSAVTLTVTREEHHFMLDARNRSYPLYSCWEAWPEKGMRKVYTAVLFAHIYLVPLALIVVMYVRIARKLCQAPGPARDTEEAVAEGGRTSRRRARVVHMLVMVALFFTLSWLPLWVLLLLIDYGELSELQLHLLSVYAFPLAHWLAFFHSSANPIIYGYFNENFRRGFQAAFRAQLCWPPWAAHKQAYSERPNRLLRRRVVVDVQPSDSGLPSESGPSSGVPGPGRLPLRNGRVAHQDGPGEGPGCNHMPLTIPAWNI
Source text: (§1) The data shown are representative of at least two independent experiments.

[2] = biological target: T2, rNPFF-2 (Rattus norvegicus, UniProt Q9EQD2); assay: as above; assay type: cell-based; conditions: for Functional Activity rNPFF-2 I.A. %: intrinsic activity as percentage of maximal response by NPFF
T2 construct: expressed in transfected cells
T2 sequence (Q9EQD2 whole entry): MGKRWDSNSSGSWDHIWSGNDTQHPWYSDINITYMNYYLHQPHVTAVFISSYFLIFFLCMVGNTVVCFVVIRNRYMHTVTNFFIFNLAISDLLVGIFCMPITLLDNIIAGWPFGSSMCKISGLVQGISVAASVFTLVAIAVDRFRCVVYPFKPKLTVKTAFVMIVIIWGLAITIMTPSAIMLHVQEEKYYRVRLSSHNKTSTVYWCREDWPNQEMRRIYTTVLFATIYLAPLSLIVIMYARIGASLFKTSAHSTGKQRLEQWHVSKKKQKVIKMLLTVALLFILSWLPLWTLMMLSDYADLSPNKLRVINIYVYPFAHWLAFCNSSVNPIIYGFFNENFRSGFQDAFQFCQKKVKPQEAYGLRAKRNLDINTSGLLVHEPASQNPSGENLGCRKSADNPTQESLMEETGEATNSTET
Source text: as §1

[3] = biological target: T2, rNPFF-2; assay: Radioligand binding assay, competitive displacement of [125I]1DMeNPFF at cloned NPFF receptors; conditions: cloned rat receptor
[4] = biological target: T1, rNPFF-1; assay: as above; conditions: cloned rat receptor
[5] = tested 0.001 nM to 3600 nM, read-out: Functional Activity rNPFF-2 EC50
[6] = rat cloned NPFF receptors, by IA and Ki

Structure (SMILES) | Functional Activity rNPFF-1 I.A. % [1] | Functional Activity rNPFF-2 I.A. % [2] | EC50 [2, 5] | Ki [3] | EC50 [1] | Ki [4] | classification agonist/antagonist at NPFF1 receptors [1, 6] | classification agonist/antagonist at NPFF2 receptors [2, 6] | EC50 [2]
COc1ccc(C)cc1S(=O)(=O)N[C@@H](CCCNC(=N)N)C(=O)N[C@@H](Cc1ccccc1)C(N)=O [Compound 2003] | 102% | 52% | > 3160 nM | > 10000 nM | – | – | – | – | –
N=C(N)NCCC[C@H](NS(=O)(=O)c1c(F)c(F)c(F)c(F)c1F)C(=O)N[C@@H](Cc1ccccc1)C(N)=O [Compound 1024] | 69% | 43% | > 3160 nM | 5400 nM | 720 nM | 486 nM | – | – | –
N=C(N)NCCC[C@H](NS(=O)(=O)c1ccc(I)cc1)C(=O)N[C@@H](Cc1ccccc1)C(N)=O [Compound 1012] | 71% | 93% | 1420 nM | 2920 nM | 358 nM | 1430 nM | – | – | –
N=C(N)NCCC[C@H](NS(=O)(=O)c1ccccc1Br)C(=O)N[C@@H](Cc1ccccc1)C(N)=O [Compound 2001] | – | 09% | – | – | – | – | – | – | –
N=C(N)NCCC[C@@H](NS(=O)(=O)c1ccccc1Br)C(=O)N[C@@H](Cc1ccccc1)C(N)=O [Compound 1030] | – | 71% | – | – | – | – | – | – | –
COc1ccc(S(=O)(=O)N[C@@H](CCCNC(=N)N)C(=O)N[C@@H](Cc2ccccc2)C(N)=O)cc1OC [Compound 1015] | 84% | 74% | 1810 nM | > 10000 nM | 140 nM | 462 nM | – | – | –
N=C(N)NCCC[C@H](NS(=O)(=O)c1ccc(Cl)cc1Cl)C(=O)N[C@@H](Cc1ccccc1)C(N)=O [Compound 1010] | 85% | 28% | 2980 nM | 1860 nM | 594 nM | 871 nM | – | – | –
N=C(N)NCCC[C@@H](NS(=O)(=O)c1cccc2ccccc12)C(=O)N[C@@H](Cc1ccccc1)C(N)=O [Compound 3001] | 1% | 79% | 378 nM | 2860 nM | > 10000 nM | 46 nM | antagonist (an antagonist has a Ki≦1.2 μM and an intrinsic activity (IA)≦15%) | agonist (an agonist has an intrinsic activity (IA)>15%) | –
N=C(N)NCCC[C@H](NS(=O)(=O)c1ccccc1[N+](=O)[O-])C(=O)N[C@@H](Cc1ccccc1)C(N)=O [Compound 1026] | 79% | 59% | > 3160 nM | 3500 nM | 412 nM | 535 nM | – | – | –
COc1ccc(Br)cc1S(=O)(=O)N[C@@H](CCCNC(=N)N)C(=O)N[C@@H](Cc1ccccc1)C(N)=O [Compound 1025] | 78% | 33% | > 3160 nM | 4120 nM | 596 nM | 328 nM | – | – | –
N=C(N)NCCC[C@H](NS(=O)(=O)c1cccc([N+](=O)[O-])c1)C(=O)N[C@@H](Cc1ccccc1)C(N)=O [Compound 1002] | 88% | 89% | 846 nM | 1250 nM | 139 nM | 136 nM | – | – | –
N=C(N)NCCC[C@H](NS(=O)(=O)c1ccc([N+](=O)[O-])cc1)C(=O)N[C@@H](Cc1ccccc1)C(N)=O [Compound 1003] | 74% | 44% | 1870 nM | 2610 nM | 149 nM | 732 nM | – | – | –
N#Cc1ccccc1S(=O)(=O)N[C@@H](CCCNC(=N)N)C(=O)N[C@@H](Cc1ccccc1)C(N)=O [Compound 1027] | – | – | > 3160 nM | 6170 nM | 183 nM | 515 nM | – | – | –
N=C(N)NCCC[C@H](NS(=O)(=O)c1cc(Cl)ccc1Cl)C(=O)N[C@@H](Cc1ccccc1)C(N)=O [Compound 1021] | 78% | 59% | 2330 nM | 2030 nM | 1030 nM | 335 nM | – | – | –
N=C(N)NCCC[C@H](NS(=O)(=O)c1c(Cl)cccc1Cl)C(=O)N[C@@H](Cc1ccccc1)C(N)=O [Compound 1019] | 56% | 45% | > 3160 nM | 3370 nM | 2200 nM | 815 nM | – | – | –
N=C(N)NCCC[C@H](NS(=O)(=O)c1c(F)cccc1F)C(=O)N[C@@H](Cc1ccccc1)C(N)=O [Compound 1004] | 79% | 43% | – | 1450 nM | 117 nM | 173 nM | – | – | –

Structure (SMILES) | Functional Activity rNPFF-1 I.A. % [1] | Functional Activity rNPFF-2 I.A. % [2] | EC50 [2, 5] | Ki [3] | EC50 [1] | Ki [4] | classification agonist/antagonist at NPFF1 receptors [1, 6] | classification agonist/antagonist at NPFF2 receptors [2, 6] | EC50 [2]
N=C(N)NCCC[C@H](NS(=O)(=O)c1ccc(F)c(Cl)c1)C(=O)N[C@@H](Cc1ccccc1)C(N)=O [Compound 1017] | 84% | 45% | > 3160 nM | 3560 nM | 376 nM | 1140 nM | – | – | –
N=C(N)NCCC[C@H](NS(=O)(=O)c1ccc(Cl)c(Cl)c1)C(=O)N[C@@H](Cc1ccccc1)C(N)=O [Compound 1022] | 86% | 34% | > 3160 nM | – | 1860 nM | – | – | – | –
N=C(N)NCCC[C@H](NS(=O)(=O)c1c(F)cccc1F)C(=O)N[C@H](Cc1ccccc1)C(N)=O [Compound 1032] | 47% | 61% | 2760 nM | > 10000 nM | 644 nM | 1290 nM | – | – | –
N#Cc1cccc(S(=O)(=O)N[C@@H](CCCNC(=N)N)C(=O)N[C@@H](Cc2ccccc2)C(N)=O)c1 [Compound 1023] | 90% | 28% | > 3160 nM | 9920 nM | 166 nM | 496 nM | – | – | –
N=C(N)NCCC[C@H](NS(=O)(=O)c1ccc(F)cc1)C(=O)N[C@@H](Cc1ccccc1)C(N)=O [Compound 1005] | 71% | 46% | 3500 nM | 1370 nM | 104 nM | 150 nM | – | – | –
N=C(N)NCCC[C@H](NS(=O)(=O)c1ccc(F)cc1)C(=O)N[C@H](Cc1ccccc1)C(N)=O [Compound 1033] | 42% | 57% | 1940 nM | > 10000 nM | 1600 nM | 458 nM | – | – | –
Cc1ccc(S(=O)(=O)N[C@@H](CCCNC(=N)N)C(=O)N[C@@H](Cc2ccccc2)C(N)=O)cc1 [Compound 1007] | 79% | 55% | 2300 nM | 3080 nM | 286 nM | 756 nM | – | – | –
COc1ccc(S(=O)(=O)N[C@@H](CCCNC(=N)N)C(=O)N[C@@H](Cc2ccccc2)C(N)=O)cc1 [Compound 1009] | – | – | – | 1090 nM | – | 321 nM | – | – | –
N=C(N)NCCC[C@H](NS(=O)(=O)c1ccc([N+](=O)[O-])cc1[N+](=O)[O-])C(=O)N[C@@H](Cc1ccccc1)C(N)=O [Compound 2002] | 34% | 05% | – | 5490 nM | – | 1390 nM | – | – | > 10000 nM
N=C(N)NCCC[C@H](NS(=O)(=O)c1ccc(Cl)c([N+](=O)[O-])c1)C(=O)N[C@@H](Cc1ccccc1)C(N)=O [Compound 1016] | 72% | 81% | 660 nM | 2090 nM | 62 nM | 151 nM | – | – | –
N=C(N)NCCC[C@H](NS(=O)(=O)c1cc(Cl)sc1Cl)C(=O)N[C@@H](Cc1ccccc1)C(N)=O [Compound 1020] | 01% | 02% | > 10000 nM | 5150 nM | > 10000 nM | 1950 nM | – | – | –
N=C(N)NCCC[C@H](NS(=O)(=O)c1ccc(Cl)cc1)C(=O)N[C@@H](Cc1ccccc1)C(N)=O [Compound 1006] | 75% | 43% | 3720 nM | 1010 nM | 151 nM | 266 nM | – | – | –
N=C(N)NCCC[C@H](NS(=O)(=O)c1ccc2ccccc2c1)C(=O)N[C@H](Cc1ccccc1)C(N)=O [Compound 1029] | 30% | 86% | > 3160 nM | 2690 nM | 477 nM | 399 nM | – | – | –
CN(C)c1cccc2c(S(=O)(=O)N[C@@H](CCCN=C(N)N)C(=O)N[C@@H](Cc3ccccc3)C(N)=O)cccc12 [dansyl-RFamide, reference compound] | 106% | 96% | 2520 nM | 2310 nM | 524 nM | 88 nM | – | – | –
N=C(N)NCCC[C@H](NS(=O)(=O)Cc1ccccc1)C(=O)N[C@@H](Cc1ccccc1)C(N)=O [Compound 1011, N1-[(1S)-2-Amino-1-benzyl-2-oxoethyl]-(25)-5-[amino(imino)methyl]amino-2-[(benzylsulfonyl)amino]pentanamide] | 74% | 62% | 1340 nM | > 10000 nM | 765 nM | 5960 nM | – | – | –
N=C(N)NCCC[C@@H](NS(=O)(=O)c1ccc(F)cc1)C(=O)N[C@@H](Cc1ccccc1)C(N)=O [Compound 1028] | – | 62% | 1580 nM | 8060 nM | 404 nM | 1280 nM | – | – | –
